These results are taken from patent US5962480A, “Drug for ameliorating brain diseases” (Wakunaga Pharmaceutical Co., Ltd., priority 1995, dated 1999).

Read-outs that look alike come from different tables or passages of the source.

The subject of data set [1] is hippocampus cells (neurites). As to the kind of experiment: branching promotion effect on neurites. The class given is cell-based, rat. As to conditions: one and two days after addition of the drug. On the procedure: The hippocampus cells obtained in a manner similar to that in Example 1 were incubated for 24 hours in a medium containing fetal calf serum, then for a further 24 hours in a serum-free medium. Subsequently, the drug was added. When one day and two days elapsed after addition of the drug, photographs were taken of the same cells. The number of branches from the longest neurite was counted.

The next data set deals with hippocampus neurons. Briefly: inhibition of reduction in survival rate of neurons, hippocampus (number of surviving cells). Type of data set: cell-based, rat. As to conditions: for viability at 1 µg/mL / viability at 0.1 µg/mL / viability at 0.01 µg/mL / viability at 0.001 µg/mL / viability at 10 µg/mL: Rattus norvegicus, Neuron, 72 h, control 100%; for viability at 1 µg/mL: 10^-6 g/ml; for viability at 0.1 µg/mL: 10^-7 g/ml; for viability at 0.01 µg/mL: 10^-8 g/ml; for viability at 0.001 µg/mL: 10^-9 g/ml; for viability at 10 µg/mL: 10^-5 g/ml; for inhibitory effect against reduction in survival rate of neurons (in words): hippocampus cells, Example 2. On the procedure: (§1) From a rat at the 18th day of pregnancy (having an 18 -day old embryo) the uterus was aseptically removed under etherification, and the fetus was obtained. The whole brain was collected from the fetus. From the brain placed in an L-15 medium were removed under a microscope the hippocampus, striate body, septum, cerebral cortex, and cerebellum. They were respectively minced with a knife. The minced tissue was treated by the addition of trypsin (0.25%) and DNase (0.01%) for 30 minutes at 37° C. to thereby isolate cells. The thus-isolated cells were suspended in Eagle's MEM medium supplemented with 10% fetal calf serum, and inoculated at a concentration of 4×10^4 cells/cm^2 into wells of a 48-well plate which had been coated with poly-L-lysin in advance. Following incubation for 24 hours, the medium was replaced by a serum-free DMEM/F-12 medium containing the drug. After three-days' additional incubation (six days for the striate body), the cells were fixed, stained, and the number of surviving cells in each well was counted. Compounds (2) through (14) were tested analogously to Example 1 using hippocampus cells prepared in a manner similar to Example 1. As structural comparative compounds, the following compounds were used: 4H-pyran-4-one (hereinafter referred as Compound (15) and 3-methoxy-6 -hydroxymethyl-4H-pyran-4-one (hereinafter referred to as Compound (16)).

A further data set has as its system striate body neurons. As to the kind of experiment: inhibition of reduction in survival rate of neurons, striate body (number of surviving cells). The class given is cell-based. The conditions noted are these: Rattus norvegicus, Neuron, 144 h, 6 days, control 100%. As for the experimental part: as §1, with “counted.” for “counted. Compounds (2) through (14) were tested analogously to Example 1 using hippocampus cells prepared in a manner similar to Example 1. As structural comparative compounds, the following compounds were used: 4H-pyran-4-one (hereinafter referred as Compound (15) and 3-methoxy-6 -hydroxymethyl-4H-pyran-4-one (hereinafter referred to as Compound (16)).”

Data set [2] is described as follows: oral toxicity (LD50), mice. The conditions noted are these: mouse, in vivo, read-out: 50% lethal death (LD50).
A further data set concerns cerebral cortex neurons. Briefly: inhibition of reduction in survival rate of neurons, cerebral cortex (number of surviving cells). The class given is cell-based. As to conditions: Rattus norvegicus, Cerebral cortex neuron, 72 h, 3 days, control 100%. On the procedure:
as §1, with “counted.” for “counted. Compounds (2) through (14) were tested analogously to Example 1 using hippocampus cells prepared in a manner similar to Example 1. As structural comparative compounds, the following compounds were used: 4H-pyran-4-one (hereinafter referred as Compound (15) and 3-methoxy-6 -hydroxymethyl-4H-pyran-4-one (hereinafter referred to as Compound (16)).”

Another data set concerns septum neurons. As to the kind of experiment: inhibition of reduction in survival rate of neurons, septum (number of surviving cells). The class given is cell-based. The conditions noted are these: Rattus norvegicus, Neuron, 72 h, 3 days, control 100%. On the procedure:
as §1, with “counted.” for “counted. Compounds (2) through (14) were tested analogously to Example 1 using hippocampus cells prepared in a manner similar to Example 1. As structural comparative compounds, the following compounds were used: 4H-pyran-4-one (hereinafter referred as Compound (15) and 3-methoxy-6 -hydroxymethyl-4H-pyran-4-one (hereinafter referred to as Compound (16)).”

Another data set relates to brain neurons. As to the kind of experiment: inhibition of reduction of brain neurons (overall statement). As to conditions: concentration-dependent; activity of control: 100%. The class given is cell-based, rat. As for the experimental part:
as §1, with “counted.” for “counted. Compounds (2) through (14) were tested analogously to Example 1 using hippocampus cells prepared in a manner similar to Example 1. As structural comparative compounds, the following compounds were used: 4H-pyran-4-one (hereinafter referred as Compound (15) and 3-methoxy-6 -hydroxymethyl-4H-pyran-4-one (hereinafter referred to as Compound (16)).”

Data set [3] can be described thus: oral toxicity (LD50), rats. As to conditions: rat, in vivo, read-out: 50% lethal death (LD50).
The subject of another data set is cerebellum neurons. Briefly: inhibition of reduction in survival rate of neurons, cerebellum (number of surviving cells). Type of data set: cell-based. As to conditions: Rattus norvegicus, Neuron, 72 h, 3 days, control 100%. On the procedure: as §1, with “counted.” for “counted. Compounds (2) through (14) were tested analogously to Example 1 using hippocampus cells prepared in a manner similar to Example 1. As structural comparative compounds, the following compounds were used: 4H-pyran-4-one (hereinafter referred as Compound (15) and 3-methoxy-6 -hydroxymethyl-4H-pyran-4-one (hereinafter referred to as Compound (16)).”

[4] abbreviates: 3 days, read-out: Number of surviving cells, Hippocampus.
Where [5] appears, read: read-out: Inhibitory effect against reduction in survival rate of neurons (survival rate class).

What is called LD50 is the dose expected to kill half of the subjects tested.

Take `CCCCCc1oc(C)c(OC)c(=O)c1O` [Compound (1), 3-Hydroxy-6-methyl-5-methoxy-2-pentyl-4H-pyran-4-one]: the “branching promotion effect on neurites (in words)” value in data set [1] is “confirmed to have a branching promotion effect on neurites”. In addition, the viability at 1 µg/mL in the data set on hippocampus neurons (setting [4]) turned out to be 57.8%; in the data set with striate body neurons (10^-6 g/ml) it was 83.8%; in the data set on cerebral cortex neurons (10^-6 g/ml), 90.2%; in the data set with septum neurons (10^-6 g/ml), 71.6%; in the data set on cerebellum neurons (10^-6 g/ml) it was 65.3%. Moreover, the viability at 0.1 µg/mL is 146% with hippocampus neurons (setting [4]); 160% in the data set with striate body neurons (10^-7 g/ml); 125% in the data set on cerebral cortex neurons (10^-7 g/ml); 157% with septum neurons (10^-7 g/ml); 147% in the data set on cerebellum neurons (10^-7 g/ml). The viability at 0.01 µg/mL was 134% with hippocampus neurons (setting [4]); 139% in the data set with striate body neurons (10^-8 g/ml); 107% with cerebral cortex neurons (10^-8 g/ml); 150% in the data set on septum neurons (10^-8 g/ml); 136% in the data set with cerebellum neurons (10^-8 g/ml). The viability at 0.001 µg/mL with hippocampus neurons (setting [4]) came to 109%; in the data set with striate body neurons (10^-9 g/ml), 126%; in the data set with cerebral cortex neurons (10^-9 g/ml) it was 104%; with septum neurons (10^-9 g/ml), 128%; with cerebellum neurons (10^-9 g/ml), 137%. In addition, the median lethal dose (LD50) in [2] and in data set [3] was at least 1000 mg/kg throughout. Also, the “concentration range of effect of inhibiting reduction of neurons” value in the data set on brain neurons was in the range of 1 to 100 ng/mL.

Consider `Cc1cc(=O)c(O)c(C)o1` [Compound (3), 3-Hydroxy-2,6-dimethyl-4H-pyran-4-one], for which the “branching promotion effect on neurites (in words)” value in data set [1] is given as “confirmed to have a branching promotion effect on neurites”. In the data set with hippocampus neurons (setting [5]), the viability at 10 µg/mL lay within 110 to 130%, the viability at 1 µg/mL lay within 130 to 150%, the viability at 0.1 µg/mL was in the range of 130 to 150% and the viability at 0.01 µg/mL lay within 110 to 130%. Moreover, in the data set on hippocampus neurons (setting [5]), the viability at 0.001 µg/mL fell in the range of 90 to 110%.

For `O=c1ccocc1` [Compound (15), 4H-pyran-4-one, reference compound], in the data set on hippocampus neurons (setting [5]), the viability at 10 µg/mL fell in the range of 90 to 110%, the viability at 1 µg/mL fell in the range of 90 to 110%, the viability at 0.1 µg/mL lay in the range of 90 to 110% and the viability at 0.01 µg/mL lay in the range of 90 to 110%. The viability at 0.001 µg/mL in the data set on hippocampus neurons (setting [5]) was in the range of 90 to 110%. For the same molecule, the “inhibitory effect against reduction in survival rate of neurons (in words)” value with hippocampus neurons is listed as “no inhibitory effect”.

In the case of `COc1coc(CO)cc1=O` [Compound (16), 3-methoxy-6-hydroxymethyl-4H-pyran-4-one, reference compound], in the data set with hippocampus neurons (setting [5]), the viability at 10 µg/mL lay within 90 to 110%, the viability at 1 µg/mL lay within 90 to 110%, the viability at 0.1 µg/mL fell in the range of 90 to 110% and the viability at 0.01 µg/mL fell in the range of 90 to 110%. Besides, the viability at 0.001 µg/mL with hippocampus neurons (setting [5]) fell in the range of 90 to 110%. In the data set on hippocampus neurons, the “inhibitory effect against reduction in survival rate of neurons (in words)” value is given as “no inhibitory effect”.
